Results taken from PubChem BioAssay (NCI).
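Five compound concentrations were applied to cells in 96-well plates for 48 hours; endpoints were derived by simple linear interpolation of the resulting dose-response curve. Abbreviation: GI50, concentration required for 50% inhibition of growth. The concentration for full growth arrest is given as TGI.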

Tests used:
Assay in all cases: NCI-60 cell line screen, 48 h
[1] = test system: 786-0 renal
[2] = test system: CAKI-1 renal
[3] = test system: M14 melanoma
[4] = test system: MOLT-4 leukemia
[5] = test system: NCI-H522 lung
[6] = test system: SF-539 CNS
[7] = test system: SR leukemia
[8] = test system: DU-145 prostate
[9] = test system: HS 578T breast
[10] = test system: MCF7 breast

| SMILES | TGI [1] [µM] | TGI [2] [µM] | TGI [3] [µM] | TGI [4] [µM] | TGI [5] [µM] | TGI [6] [µM] | TGI [7] [µM] | GI50 [1] [µM] | GI50 [2] [µM] | GI50 [8] [µM] | TGI [8] [µM] | GI50 [9] [µM] | TGI [9] [µM] | GI50 [3] [µM] | GI50 [10] [µM] | TGI [10] [µM] | GI50 [4] [µM] | GI50 [5] [µM] | GI50 [6] [µM] | GI50 [7] [µM] |
| --- | --- | --- | --- | --- | --- | --- | --- | --- | --- | --- | --- | --- | --- | --- | --- | --- | --- | --- | --- | --- |
| COc1cc(/C=C(\C#N)C(=O)c2ccccc2)cc(OC)c1OC | > 100 | > 100 | > 100 | > 100 | > 100 | > 100 | > 100 | – | – | – | – | – | – | – | – | – | – | – | – | – |
| O=C(NC(=Nc1ccccc1)SCCSC(=Nc1ccccc1)NC(=O)c1ccccc1)c1ccccc1 | > 100 | > 100 | > 100 | > 100 | 73 | > 100 | – | – | – | – | – | – | – | – | – | – | – | – | – | – |
| NC1=Nc2cc(OCCCCN3Cc4ccccc4C3)c(OCC3CC3)cc2C12CCCC2 | 3.03 | 6.5 | 3.51 | 5.04 | 3.84 | 2.91 | 4.48 | 1.54 | 2.1 | 3.24 | 11.4 | 1.49 | 4.18 | 1.77 | 1.37 | 2.99 | 1.88 | 1.86 | 1.53 | 1.61 |
| Cc1nc2ccccc2c(=O)n1/N=C(\N=Nc1ccc(Cl)cc1)c1ccc(N(C)C)cc1 | > 100 | > 100 | – | > 100 | > 100 | > 100 | – | – | – | – | – | – | – | – | – | – | – | – | – | – |
| O=C1N(c2ccccc2)C2(O)C(=O)c3ccccc3C2(O)N1c1ccccc1 (stereo not given) | > 100 | > 100 | > 100 | > 100 | > 100 | > 100 | > 100 | – | – | – | – | – | – | – | – | – | – | – | – | – |
| N#CC1(C2CC(=O)N(c3ccccc3)C2=O)CCCCC1=O (stereo not given) | > 100 | – | > 100 | > 100 | – | > 100 | > 100 | – | – | – | – | – | – | – | – | – | – | – | – | – |
| CC(=O)NNc1nc(C)c(C(=O)NNC(=O)C(=O)Nc2ccc(C)cc2[N+](=O)[O-])s1 | > 100 | > 100 | > 100 | > 100 | 78 | > 100 | > 100 | – | – | – | – | – | – | – | – | – | – | – | – | – |
| Cc1cc2c(=O)cc(-c3ccncc3)oc2c(C(N)=O)c1C | > 100 | – | – | > 100 | – | > 100 | > 100 | – | – | – | – | – | – | – | – | – | – | – | – | – |
| Cc1cc(Br)ccc1N=NC1C(=O)ON=C1c1ccccc1 (stereo not given) | > 100 | – | > 100 | > 100 | > 100 | > 100 | > 100 | – | – | – | – | – | – | – | – | – | – | – | – | – |
| Cc1cc(C)c(CNC(=O)c2cc(Cl)c3c(c2C)O[C@@](C)(C2CCC(N(C)C)CC2)O3)c(=O)[nH]1 (stereo not given in full) | > 100 | > 100 | > 100 | > 100 | > 100 | > 100 | – | 33.1 | 93.1 | > 100 | > 100 | 32.5 | > 100 | 33.8 | 49.5 | > 100 | 58.6 | > 100 | 57.9 | – |
| CC(=O)Nc1ccc(/C=C/C(=O)c2sc(-n3nc(-c4ccccc4)cc3-c3ccccc3)nc2C)cc1 | > 100 | > 100 | > 100 | > 100 | > 100 | > 100 | – | > 100 | > 100 | – | – | – | – | > 100 | – | – | > 100 | – | > 100 | – |
| COc1cc(Br)c(C2OCCCO2)cc1OCc1ccccc1 | > 100 | – | > 100 | > 100 | > 100 | > 100 | – | – | – | – | – | – | – | – | – | – | – | – | – | – |
| Nc1nc(-c2ccccn2)c(-c2ccc3ncccc3n2)s1 | > 25 | > 25 | > 25 | > 25 | > 25 | > 25 | – | > 25 | > 25 | > 25 | > 25 | > 25 | > 25 | > 25 | > 25 | > 25 | > 25 | > 25 | > 25 | – |
| CC1CC(=O)C(CC(=O)O)[C@H]1C(C(=O)C(=O)Nc1cc(Cl)ccc1Cl)[N+](=O)[O-] (stereo not given in full) | > 100 | > 100 | – | – | > 100 | > 100 | > 100 | – | – | – | – | – | – | – | – | – | – | – | – | – |
| CC(=O)O[C@@H]1[C@H]2O[C@H]2[C@H]2O[C@@]2(COC(=O)c2ccccc2)[C@H]1OC(C)=O | > 100 | > 100 | > 100 | > 100 | > 100 | > 100 | – | – | – | – | > 100 | – | > 100 | – | – | > 100 | – | – | – | – |
| CCC[CH2][Sn]1([CH2]CCC)[O]C(=O)c2cccnc2[S]1 | 6.8 | 8.05 | 10.1 | 7.71 | 1.57 | 8.39 | 5.65 | 2.55 | 1.76 | – | – | – | – | 3.22 | – | – | 1.87 | 0.348 | 3.17 | 1.4 |
| COc1ccc(Cc2c3cc(OC)c(OC)cc3cc[n+]2C)cc1 | > 29.7 | > 61.7 | > 28.1 | > 100 | > 85.9 | > 53.1 | > 100 | – | – | – | – | – | – | – | – | – | – | – | – | – |
| COc1cc(CC2c3cc(OC)c(OC)cc3CCN2C)c(C(=O)O)cc1OC (stereo not given) | > 100 | – | > 100 | > 100 | > 100 | > 100 | > 100 | – | – | – | – | – | – | – | – | – | – | – | – | – |
| CCCCP1(=O)C=CC(Cl)=C(C)C1 (stereo not given) | > 100 | – | > 100 | > 100 | > 100 | > 100 | – | – | – | – | – | – | – | – | – | – | – | – | – | – |
| CC1(C)OC2OC(/C=C/[N+](=O)[O-])C3OC(C)(C)OC3C2O1 (stereo not given) | 27.7 | 14.3 | 27.3 | 13.2 | 3.36 | 28.3 | 33.6 | – | – | – | – | – | – | – | – | – | – | – | – | – |
| C=CC(C)(C)[C@@]12CC3C(=O)N[C@@H](Cc4ccccc4)C(=O)N3[C@@H]1N(C(C)=O)c1ccccc12 (stereo not given in full) | > 100 | – | > 100 | 71.7 | – | > 100 | > 100 | – | – | – | – | – | – | – | – | – | – | – | – | – |
| COc1cnc2c(c1)C(=O)c1c-2n(CCCN2CCNCC2)c(=O)c2cc(F)ccc12 | 0.511 | – | 1.88 | 0.164 | 1.35 | 1.83 | 0.863 | 0.127 | – | 0.0623 | 1.15 | 2.08 | 16.9 | 0.366 | 0.0345 | 1.41 | 0.0275 | 0.118 | 0.532 | 0.05 |
